Assay results as given in patent US20250129021A1, “SMALL MOLECULE PROTEIN SYNTHESIS MODULATORS” (Interdict Bio, Inc., priority 2023, published 2025).
pIC50: −log10 of the molar value. Like-named read-outs stand apart in the source and are kept apart here.

Key:
cGAS = test: In vitro transcription-translation (IVTT) assay, cGAS reporter; type: biochemical; settings: HeLa S3 lysate, sfGFP/mCherry ratio
Description: (§1) In vitro transcription-translation assay setup: Each assay includes a master mix containing lysate and shared components, a 96-well plate containing compound titrations for testing, a 96-well DNA plate with reporter constructs to be tested, 96-well skirted PCR plates, and 96-well flat-bottom, black, fluorescent assay plates. Reaction materials setup: (A) Master mix—15 mL conical tube (3 mL of HeLa S3 Lysate described above; 0.6 mL of ThermoFisher Accessory Proteins (#88882); 1.2 ml of ThermoFisher Reaction Mix (#88882); 0.54 mL of nuclease-free Water); (B) 96-Well Master Mix+Compound Plate (Half-log dilutions (30 μM−0.1 μM) of 4 compounds of interest are prepared in 100% DMSO); 96-Well DNA Plate (Five DNA constructs are plated into single columns within the plate. Row 1 of the column contains nuclease free H2O, all other wells contain 110 ng/μL plasmid DNA). Reactions are started by mixing 155 μL of master mix and 3.5 μL of compound serial dilutions, then 9.1 μL of master mix+compound mixture is aliquoted across 5 96-well plates. Reactions begin with final addition of 2 μL of DNA for a 11.1 μL reaction volume in each well. The entire plate is sealed, and incubated for 2 hrs at 30° C. After 2 hrs, quench the assay using 45 μL of PBS, and transfer 50 μL to a flat-bottom black microplate Quantify the sfGFP and mCherry signals from each well on each plate, taking 3 reads of each plate, and perform data analysis below.
(§2) In vitro transcription-translation assay data analysis: Each plate is read three times in channels for both sfGFP and mCherry signals. The average signal across these 3 reads is then calculated for further analysis. Control wells containing no DNA reporter are subtracted from reporter wells in the same column to remove auto-fluorescence of the lysate. Then, the ratio of sfGFP/mCherry is calculated per well, and these ratios are averaged across the triplicate experiments on the same plate. Finally, the ratio of each titration concentration is normalized to the no drug control to create the normalized stalling metric. The error on this measurement is determined by propagating error through the averaging and normalization steps. Values are plotted and fit for IC50 determination for each test sequence and titration of compound.

STING = test: In vitro transcription-translation (IVTT) assay, STING reporter; type: biochemical; settings: HeLa S3 lysate, sfGFP/mCherry ratio
Description: as §1, §2

CCND1 = test: In vitro transcription-translation (IVTT) assay, CCND1 reporter; type: biochemical; settings: HeLa S3 lysate, sfGFP/mCherry ratio
Outline: (§3)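 Reporter: mCherry, P2A, then 3×FLAG-target peptide-sfGFP fusion, IRES-initiated; HeLa S3 lysate IVTT; cpd dilutions 30 μM−0.1 μM half-log in 100% DMSO (dilution-plate conc); DNA added last; 2 h, 30° C; PBS quench.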

MCL-1 = test: In vitro transcription-translation (IVTT) assay, MCL-1 reporter; type: biochemical; settings: HeLa S3 lysate, sfGFP/mCherry ratio
Outline: as §3

NFKB1 = test: In vitro transcription-translation (IVTT) assay, NFKB1 reporter; type: biochemical; settings: HeLa S3 lysate, sfGFP/mCherry ratio
Outline: (§4)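 Cell-free HeLa S3 lysate reactions expressing sfGFP/mCherry reporter constructs ran 2 h at 30 °C with compound from half-log DMSO series (30 μM–0.1 μM as prepared), then were quenched with PBS. No-DNA background was subtracted, and the sfGFP/mCherry ratio was normalized to the no-drug control and fit for IC50.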

CCNTB1 = test: In vitro transcription-translation (IVTT) assay, CCNTB1 reporter; type: biochemical; settings: HeLa S3 lysate, sfGFP/mCherry ratio
Outline: as §4

JAK1 = test: In vitro transcription-translation (IVTT) assay, JAK1 reporter; type: biochemical; settings: HeLa S3 lysate, sfGFP/mCherry ratio
Description: as §1, §2

MYC = test: In vitro transcription-translation (IVTT) assay, MYC reporter; type: biochemical; settings: HeLa S3 lysate, 2 hrs at 30° C.
Outline: as §3

MCF7 = test: Cell viability (CellTiter-Fluor), MCF7; type: cell-based; settings: Homo sapiens, 24-72 hrs
Description: (§5) Count and dispense 2,000-10,000 cells per well (100 μL volume) in black 96-well tissue culture microplate and let cells adhere overnight. Add compound dissolved in 100% DMSO to each well as needed and incubate cells in standard culture conditions for 24-72 hrs. Final DMSO concentration in each well should be 0.1-0.5%. At the desired time point, gently aspirate compound containing media and replace with PBS to wash. Repeat wash step for 2 total washes. Remove PBS and add 100 μL CellTiter-Fluor reagent (Promega) reagent to each well. Seal plate and incubate 1 hr at room temperature with orbital shaking. Analyze fluorescence using plate reader to quantify viable cells compared with vehicle (DMSO) control.

HPAF-II = test: Cell viability (CellTiter-Fluor), HPAF-II; type: cell-based; settings: Homo sapiens, 24-72 hrs
Description: as §5

HEK 293T = test: Cell viability (CellTiter-Fluor), HEK 293T; type: cell-based; settings: Homo sapiens, 24-72 hrs
Description: as §5

KLE = test: Cell viability (CellTiter-Fluor), KLE; type: cell-based; settings: Homo sapiens, 24-72 hrs
Description: as §5

HEPG2 = test: Cell viability (CellTiter-Fluor), HEPG2; type: cell-based; settings: Homo sapiens, 24-72 hrs
Description: as §5

NCI-H1915 = test: Cell viability (CellTiter-Fluor), NCI-H1915; type: cell-based; settings: 24-72 hrs
Description: as §5

LS411N = test: Cell viability (CellTiter-Fluor), LS411N; type: cell-based; settings: Homo sapiens, LS-411N, 24-72 hrs
Description: as §5

BCL-2 = test: In vitro transcription-translation (IVTT) assay, BCL-2 reporter; type: biochemical; settings: HeLa S3 lysate, sfGFP/mCherry ratio, 2 hrs at 30° C.
Outline: as §3

KRAS G12D = test: In vitro transcription-translation (IVTT) assay, KRAS G12D reporter; type: biochemical; settings: HeLa S3 lysate, sfGFP/mCherry ratio, 2 hrs at 30° C.
Outline: as §3

ALK = test: In vitro transcription-translation (IVTT) assay, ALK reporter; type: biochemical; settings: HeLa S3 lysate, sfGFP/mCherry ratio, 2 hrs at 30° C.
Outline: as §3

[1] = IVTT assay, read-out: MCL1 IC50
[2] = IVTT assay, MYC reporter, normalized sfGFP/mCherry ratio, half-log dilutions 30 μM-0.1 μM

Row | pIC50 (cGAS) | pIC50 (STING) | pIC50 (CCND1; IVTT assay) | pIC50 (MCL-1; [1]) | pIC50 (NFKB1) | pIC50 (CCNTB1) | pIC50 (JAK1) | pIC50 (MCF7) | pIC50 (MCL-1; 2 hrs at 30° C.) | pIC50 (NCI-H1915) | pIC50 (BCL-2) | pIC50 (MYC; sfGFP/mCherry ratio) | pIC50 (CCND1; 2 hrs at 30° C.) | SMILES | pIC50 (MYC; [2]) | pIC50 (HPAF-II) | pIC50 (HEK 293T) | pIC50 (KLE) | pIC50 (LS411N) | other results
1 | > 5.00 | > 5.00 | > 5.00 | > 5.00 | > 5.00 | > 5.00 | > 5.00 |  |  |  |  |  |  | O=C(NCCOC(F)(F)F)O[C@@H]1[C@@H](O)CN[C@@H]1Cc1ccc(-c2cnco2)cc1 [V192265, (2R,3S,4S)-4-hydroxy-2-{[4-(1,3-oxazol-5-yl)phenyl]methyl}pyrrolidin-3-yl N-[2-(trifluoromethoxy)ethyl]carbamate] | > 5.00 |  |  |  |  | 
2 | > 5.00 | > 5.00 | > 5.00 | > 5.00 | > 5.00 | > 5.00 | > 5.00 |  |  |  |  |  |  | O=C(NCC[C@@H]1CCCN1)O[C@@H]1[C@@H](O)CN[C@@H]1Cc1ccc(-c2cnco2)cc1 [V192047, (2R,3S,4S)-4-hydroxy-2-{[4-(1,3-oxazol-5-yl)phenyl]methyl}pyrrolidin-3-yl N-{2-[(2S)-pyrrolidin-2-yl]ethyl}carbamate] | > 5.00 |  |  |  |  | 
3 | > 5.00 | > 5.00 | > 5.00 | > 5.00 | > 5.00 | > 5.00 | > 5.00 |  |  |  |  |  |  | O=C(NCCC1CCNCC1)O[C@@H]1[C@@H](O)CN[C@@H]1Cc1ccc(-c2cnco2)cc1 [V192049, (2R,3S,4S)-4-hydroxy-2-{[4-(1,3-oxazol-5-yl)phenyl]methyl}pyrrolidin-3-yl N-[2-(piperidin-4-yl)ethyl]carbamate] | > 5.00 |  |  |  |  | 
4 | > 5.00 | > 5.00 | > 5.00 | > 5.00 | > 5.00 | > 5.00 | > 5.00 |  |  |  |  |  |  | O=C(NCc1ccnc(N2CCC2)c1)O[C@@H]1[C@@H](O)CN[C@@H]1Cc1ccc(-c2cnco2)cc1 [V192160, (2R,3S,4S)-4-hydroxy-2-(4-(oxazol-5-yl)benzyl)pyrrolidin-3-yl ((2-(azetidin-1-yl)pyridin-4-yl)methyl)carbamate] | > 5.00 |  |  |  |  | 
5 | > 5.00 | > 5.00 | > 5.00 | > 5.00 | > 5.00 | > 5.00 | > 5.00 |  |  |  |  |  |  | O=C(NCc1cccc(C2CNC2)c1)O[C@@H]1[C@@H](O)CN[C@@H]1Cc1ccc(-c2cnco2)cc1 [V192154, (2R,3S,4S)-4-hydroxy-2-{[4-(1,3-oxazol-5-yl)phenyl]methyl}pyrrolidin-3-yl N-{[3-(azetidin-3-yl)phenyl]methyl}carbamate] | > 5.00 |  |  |  |  | 
6 |  |  |  |  |  |  |  | 6.00 to 6.60 | > 5.00 | ≤ 5.40 | 4.70 to 5.00 | > 5.00 |  | COc1ccc(C[C@H]2NC[C@H](O)[C@H]2OC(=O)NCC[C@@H]2CCNC2)cc1 [V187878, (2R,3S,4S)-4-hydroxy-2-[(4-methoxyphenyl)methyl]pyrrolidin-3-yl N-{2-[(3S)-pyrrolidin-3-yl]ethyl}carbamate] |  | ≤ 5.40 | ≤ 5.40 | ≤ 5.40 | 5.40 to 6.00 | pIC50 (HEPG2): 5.40 to 6.00
7 |  |  |  |  |  |  |  | 5.40 to 6.00 | > 5.00 |  | 4.70 to 5.00 | > 5.00 |  | COc1ccc(C[C@H]2NC[C@H](O)[C@H]2OC(=O)NC[C@@H]2CCNC2)cc1 [V187685, (2R,3S,4S)-4-hydroxy-2-[(4-methoxyphenyl)methyl]pyrrolidin-3-yl N-[(3R)-pyrrolidin-3-ylmethyl]carbamate] |  |  | ≤ 5.40 |  |  | pIC50 (KRAS G12D): 4.70 to 5.00
8 |  |  |  |  |  |  |  | 5.40 to 6.00 |  | ≤ 5.40 |  | > 5.00 | 4.70 to 5.00 | COc1ccc(C[C@H]2NC[C@H](O)[C@H]2OC(=O)NC[C@H]2CCNC2)cc1 [V187686, (2R,3S,4S)-4-hydroxy-2-(4-methoxybenzyl)pyrrolidin-3-yl (((S)-pyrrolidin-3-yl)methyl)carbamate] |  | ≤ 5.40 | ≤ 5.40 |  | ≤ 5.40 | pIC50 (KRAS G12D): 4.70 to 5.00; pIC50 (ALK): > 5.00
9 |  |  |  |  |  |  |  | 5.40 to 6.00 | > 5.00 | 5.40 to 6.00 |  | > 5.00 | > 5.00 | COc1ccc(C[C@H]2NC[C@H](O)[C@H]2OC(=O)NCc2cc[nH]c(=O)c2)cc1 [V188053, (2R,3S,4S)-4-hydroxy-2-[(4-methoxyphenyl)methyl]pyrrolidin-3-yl N-[(2-oxo-1H-pyridin-4-yl)methyl]carbamate] |  | 5.40 to 6.00 | 5.40 to 6.00 | 5.40 to 6.00 | 5.40 to 6.00 | 
10 |  |  |  |  |  |  |  | 6.00 to 6.60 | > 5.00 | 6.00 to 6.60 | > 5.00 | > 5.00 | > 5.00 | COc1ccc(C[C@H]2NC[C@H](O)[C@H]2OC(=O)NCc2ccnnc2)cc1 [V187917, (2R,3S,4S)-4-hydroxy-2-[(4-methoxyphenyl)methyl]pyrrolidin-3-yl N-(pyridazin-4-ylmethyl)carbamate] |  | 5.40 to 6.00 | > 6.60 | 6.00 to 6.60 | 6.00 to 6.60 | pIC50 (HEPG2): 5.40 to 6.00
11 |  |  |  |  |  |  |  | 6.00 to 6.60 | > 5.00 | 6.00 to 6.60 | > 5.00 | > 5.00 | > 5.00 | COc1ccc(C[C@H]2NC[C@H](O)[C@H]2OC(=O)NCc2ccnc(N)c2)cc1 [V187988, (2R,3S,4S)-4-hydroxy-2-[(4-methoxyphenyl)methyl]pyrrolidin-3-yl N-[(2-aminopyridin-4-yl)methyl]carbamate] |  | 5.40 to 6.00 | 6.00 to 6.60 | 6.00 to 6.60 | 6.00 to 6.60 | pIC50 (HEPG2): ≤ 5.40

Row | SMILES | pIC50 (cGAS) | pIC50 (STING) | pIC50 (CCND1; IVTT assay) | pIC50 (MCL-1; [1]) | pIC50 (NFKB1) | pIC50 (CCNTB1) | pIC50 (JAK1) | pIC50 (MCF7) | pIC50 (MCL-1; 2 hrs at 30° C.) | pIC50 (NCI-H1915) | pIC50 (BCL-2) | pIC50 (MYC; sfGFP/mCherry ratio) | pIC50 (CCND1; 2 hrs at 30° C.) | pIC50 (MYC; [2]) | pIC50 (HPAF-II) | pIC50 (HEK 293T) | pIC50 (KLE) | pIC50 (LS411N) | other results
12 | O=C(NCc1cccc(F)c1)O[C@@H]1[C@@H](O)CN[C@@H]1Cc1ccc(-c2cnc(C(F)(F)F)s2)cc1 [V192114, (2R,3S,4S)-4-hydroxy-2-({4-[2-(trifluoromethyl)-1,3-thiazol-5-yl]phenyl}methyl)pyrrolidin-3-yl N-[(3-fluorophenyl)methyl]carbamate] | > 5.00 | < 4.52 | < 4.52 | < 4.52 | > 5.00 | < 4.52 | 4.70 to 5.00 |  |  |  |  |  |  | < 4.52 |  |  |  |  | 
